Patent US20080085264A1, “METHODS FOR ENHANCING STEM CELL ENGRAFTMENT DURING TRANSPLANTATION” (priority 2003, published 2008)

Key:
[1] = system: Sca-1+c-kit+lin- mBM cells; experiment: Chemotaxis assay, CXCL12 induced migration of sorted Sca-1+c-kit+lin- mBM cells; assay type: cell-based, mouse; details: 5 mM Diprotin A
Description: Chemotaxis assays were performed using 96-well chemotaxis chambers (NeuroProbe, Gaithersburg, Md.) in accordance with manufacturer's instructions as described previously with minor variations (Christopherson K W, 2nd, et al. J Immunol. 2002; 169:7000-7008; Christopherson K W, 2nd, et al. Blood. 2001; 98:3562-3568; Christopherson K, 2nd, et al. Immunol Lett. 1999; 69:269-273). Briefly 300 μl of RPMI supplemented with 10% FBS and either 0, 100, 200, and 400 ng/ml of mouse CXCL12 chemokine was added to the lower chamber. Ten-thousand sorted cells in 50 μL of media were added to the upper side of the membrane (5.7 mm diameter, 5 μm pore size, polycarbonate membrane.)
Total cell number in the lower well was obtained by counting using hemocytometer after 4 hours of incubation at 37° C., 5% CO2. Percent migration was calculated by dividing the number of the cells in the lower well by the total cell input multiplied by 100 and subtracting random migration (always less than 5%) to the lower chamber without chemokine presence. Three samples were analyzed separately in triplicate, and then the data averaged for statistical analysis.
The N-terminal truncated mouse CXCL12 (CXCL12 (amino acids 3-68)) was produced by treatment of mouse CXCL12 with DPPIV (Enzyme Systems Products, Livermore, Calif.) for 18 hrs at 37° C. in PBS pH 7.4. […]

[2] = system: C57BL/6 mice; experiment: G-CSF induced mobilization of HSC/HPC in C57BL/6 mice (progenitor cell assays of peripheral blood); assay type: in vivo, mouse; details: inhibitor 5 μmol/mouse 2×/day s.c. during G-CSF mobilization, C57BL/6
Description: Mobilization was achieved by treating mice with 2.5 μg (micrograms) G-CSF/mouse 2×/day s.c. for 2 days (Broxmeyer H E, et al. J Exp Med. 1999; 189:1987-1992). Mice simultaneously treated with a specific CD26 inhibitor also underwent treatment with either 5 μmol Diprotin A/mouse 2×/day s.c. for 2 days or 5 μmol Val-Pyr/mouse 2×/day s.c. for 2 days. Diprotin A was obtained commercially (Peptides International, Louisville, Ky.) and Val-Pyr was obtained as a gift from Nicolai Wagtmann (Novo Nordisk, Denmark). After either G-CSF or G-CSF plus CD26 inhibitor treatment peripheral blood cells were collected and total cellular nuclearity was measured and progenitor cell assays were performed using total peripheral blood cells.
One-hundred thousand mouse G-CSF mobilized peripheral blood cells were plated in triplicate for colony formation by CFU-GM, BFU-E, and CFU-GEMM and scored at 7 days incubation as previously described (Cooper S, Broxmeyer H E. Measurement of interleukin-3 and other hematopoietic growth factors, such as GM-CSF, G-CSF, M-CSF, erkythropoietin and the potent co-stimulating cytokines steel factor and FLt-3 ligand. In: Coligan J E K A, Margulies D H, Shevach E M, Strober E, Coico R, ed. Current protocols in immunology. New York: John Wiley & Sons; 1996:6.4.1-6.4.12). Cells were plated for colony formation in 1% methylcellulose culture medium containing 30% FBS, 1 U/ml recombinant(r) human Epo, 0.1 mM Hemin, 5% Pokeweed Mitogen Spleen Conditioned Media (PWMSCM), and 50 ng/ml rmouse Steel Factor (=Stem Cell Factor, SCF).

[3] = system: BoyJ recipient mice; experiment: Short-term homing of donor Sca-1+lin- cells to recipient bone marrow; assay type: in vivo, mouse
Description: Control C57BL/6 (CD45.2^+), CD26 inhibitor treated C57BL/6 (CD45.2^+), or CD26^−/− (CD45.2^+) sorted Sca-1^+lin^− or LD donor BM cells were transplanted by tail-vein injection into lethally irradiated (1100 cGy split dose) congenic BoyJ (CD45.1^+) female recipient mice (Haneline L S, et al. Blood. 1999; 94:1-8.) Contribution of Sca^+lin^− donor cells in the context of Sca-1^+lin^− recipient cells was calculated by flow cytometric analysis of cells found in the recipient mouse BM by measuring CD45.1+ and CD45.2^+ on Sca-1^+lin^− LD cells isolated from the recipient mice 24 hours post transplant. […] Comparisons between treatment groups were made using a two-tailed Student's t-test and data was plotted as mean (M)±standard error of the mean (SEM).

[4] = system: DBA/2 mice; experiment: G-CSF induced mobilization of HSC/HPC in DBA/2 mice (progenitor cell assays of peripheral blood); assay type: in vivo, mouse; details: without G-CSF

Ile-Pro-Ile [Diprotin A]
enhancement in migration ([1]; 100 ng/ml CXCL12): two-fold | increase in total cell migration ([1]; 200 and 400 ng/ml CXCL12): 1.7 fold | reduction in BFU-E compared to G-CSF alone [2]: 29% | reduction in CFU-GEMM compared to G-CSF alone [2]: 63% | reduction in CFU-GM compared to G-CSF alone [2]: 59% | increase in homing efficiency ([3]; 1×10^4 sorted Sca-1+lin- BM C57Bl/6 donor cells treated 15 minutes prior to transplant, vs untreated cells): 9 fold | short-term homing of donor cells ([3]; donor LDBM unit treated prior to transplant, P<0.01, n=6): significant increase in short-term homing | effect on the mobilization of progenitors, inhibitor alone [4]: little or no effect
